Bridges are numbered along the chain shown (N, C = ends). Primed or numbered codes have the meaning given here. Where no end group is shown, it is not given here. [ ]: non-standard residue; d: D form. PEG4′ = not defined here
Assays:
[1] = biological target: human IgG; assay: Affinity analysis by surface plasmon resonance (BIAcore T200), human IgG immobilized on sensor chip; type: binding; details: BIAcore T200, HBS-EP buffer pH 7.4, immobilized human IgG
Experimental: The affinity analysis was performed by the following method. First, a solution containing equal amounts of 0.4 M EDC (1-ethyl-3-(3-dimethylaminopropyl)-carbodiimide) and 0.1 M sulfo-NHS (sulfo-N-hydroxysuccinimide)) was injected at a flow rate of […] onto a CMS sensor chip set in BIAcore T200 (GE healthcare), thereby activating the sensor chip. Then, under the condition of pH 5.5 (10 mM Na acetate), human IgG was immobilized onto the sensor chip. For the measurement, HBS-EP buffer (10 mM HEPES, 150 mM NaCl, 0.005% Tween 20, 3 mM EDTA, pH 7.4) was used, and the binding reaction was monitored by injecting 15.6, 31.2, 62.5, 125, 250, 500, and 1000 nM of the purified cross-linked cyclic peptide described above for 180 seconds at a flow rate of […]. For measuring the dissociation reaction, only the buffer was injected for 600 seconds. The analysis of interaction parameters was performed using BIA evaluation T100 software.
In Comparative Example 1, the cross-linked cyclic peptide described in Patent Document 2 was synthesized, and measurement of affinity was performed in the same manner as in Example 1. Synthesis of the peptide and cross-linking reaction were carried out under the following conditions.

[2] = test system: human serum-derived y-globulin; assay: Evaluation of alkali resistance: DBC after washing with 0.1 M sodium hydroxide solution; type: physicochemical; details: up to ten cycles of 0.1 M sodium hydroxide treatment
Experimental: The DBC measurement was performed using a liquid chromatography instrument AKTAexplore (GE Healthcare). After equilibrating the prepared column with an adsorption solution, 1 mg/mL human serum-derived y-globulin (Sigma-Aldrich) dissolved in the adsorption solution was fed at a flow rate of 1 mL/min. The DBC was determined from the amount of the sample fed until the value of an absorbance at 280 nm excluding the non-adsorbed component reached 10% of the absorbance of the entire sample.
To a 1-mg peptide-immobilized 1-mL column prepared by the same method as in Example 2, 10 mL of 0.1 M sodium hydroxide solution was fed. The column was then washed with 10 mL of an adsorption solution. After washing with the sodium hydroxide solution/adsorption solution for 1, 2, 5, and 10 times, measurement of DBC was performed at a flow rate of 1 mL/min in the same manner as in Example 2. The variation rate of DBC was determined based on the DBC before the sodium hydroxide treatment as 100%. […]

Substance	Kd [1] [nM]	koff [1] [s⁻¹]	kon [1] [M⁻¹ s⁻¹]	decrease in DBC by sodium hydroxide treatment (alkali resistance) [2]
N-terminal PEG4-modified, C-terminal amidated cross-linked cyclic peptide GPDCAYHRGELVWCTFH (SEQ ID NO: 31), two cysteine residues linked as in the formula [Example 1]	340	0.22	650000	almost no decrease in DBC
PEG4-modified, amidated GPDCAYHRGELVWCTFH peptide of Patent Document 2, cysteine sulfide groups linked via 1,3-dichloro-2-propanone-derived linker ([PEG4′]GPDCAYHRGELVWCTFH-NH2; bridge 5-15; not fully specified (bridges)) [Comparative Example 1, reference compound]	4900	0.005	1000	

From patent US12202858B2, “Solid-phase carrier including IgG-binding peptide, and IgG separation method” (KAGOSHIMA UNIVERSITY, priority 2018, dated 2025)
